In US11278524B2, “Formulations and methods for the treatment of cancers” (Stemirna (Shanghai) Biotechnology Co. LTED., priority 2018, dated 2022):

Experiments:
LNCaP AI-tumors = assay: Therapy of mice bearing LNCaP androgen-independent (AI) tumors; type: in vivo
[1] = system: LAPC9 androgen-independent tumors; assay: Therapy of LAPC9 androgen-independent tumors; type: in vivo, mice
Procedure: (§1) The xenograft models—LAPC9, LAPC4, LNCaP, and VCaP were serially passaged in castrated male NOD/SCID-γ mice (NSG; for LNCaP or NOD/SCID for the other models). The tumors were then harvested for western blot analysis for androgen receptor, androgen receptor-target molecules, cancer stem cell (CSC) and castration resistance (CR) markers. PC3 cells were used as a negative control for androgen receptors. 60 μg of whole cell lysate was loaded in each lane. GADPH was run as the loading controls (top and bottom panels).
To determine the sensitivity of LAPC9 androgen-independent tumors to enzalutamide, therapy experiments were performed as described for the LNCaP primary AI tumors (FIG. 3). […] To determine whether blocking alternate pathways regulated by any of these high expressing proteins, in the Enzalutamide resistant LAPC9 androgen-independent tumors, affects tumor burden, therapy experiments were performed with the Bromodomain and Extra-Terminal protein (a upstream regulator of Myc transcription) inhibitor, JQ1. The integrin α2β1 inhibitor, Compound 15 (142,143) was used as a positive control.

[2] = system: LAPC4 androgen-independent tumors; assay: Therapy of castrated mice bearing LAPC4 androgen-independent tumors; type: in vivo
Procedure: as §1
To determine whether targeting cyt-AR in these tumors would be effective in reducing tumor burden, castrated mice bearing LAPC4 androgen-independent tumors were administered enzalutamide as indicated (FIG. 5B), and the tumor volume measured.
However, starting from ˜6.5-7 weeks, tumors resumed growth, indicative of resistance to enzalutamide. […] This opens the possibility of employing combinatorial approaches that target androgen receptor (Enzalutamide) together molecules such as Bcl2 (Venetoclax).

[3] = enzalutamide-resistant LAPC4 tumors, western blot
[4] = enzalutamide-resistant LAPC9 AI tumors

CNC(=O)c1ccc(N2C(=S)N(c3ccc(C#N)c(C(F)(F)F)c3)C(=O)C2(C)C)cc1F [Enzalutamide, 4-(3-(4-Cyano-3-(trifluoromethyl)phenyl)-5,5-dimethyl-4-oxo-2-thioxoimidazolidin-1-yl)-2-fluoro-N-methylbenzamide] was tested, and the “Bcl-2 expression in response to enzalutamide” value (LNCaP AI-tumors; among CSC and castration resistance markers, western blot) was “most prominent upregulation”, the “duration of growth suppression” value (LNCaP AI-tumors; enzalutamide i.p.) was 6.5 weeks and the “time at which no further response to enzalutamide was observed (emergence of enzalutamide-resistant tumors)” value (LNCaP AI-tumors; enzalutamide i.p.) was “about 7 weeks”. The “growth of androgen-independent LNCaP tumors” value (LNCaP AI-tumors; enzalutamide i.p., vehicle corn oil) was “suppressed growth”, the FKBP5 expression (LNCaP AI-tumors; enzalutamide-resistant secondary LNCaP CR tumors, western blot) was “decreased” and the PSA expression (LNCaP AI-tumors; enzalutamide-resistant secondary LNCaP CR tumors, western blot and IHC) was “decreased”. The FKBP5 levels ([1]; both vehicle and treatment groups, western blot) was “greatly diminished”, the “levels of integrin α2, c-Myc, N-cadherin, Bcl-2 and p-ERK1/2” value ([1]; enzalutamide-treated tumors, western blot) was “continued to express high levels” and the “response of tumors to enzalutamide (tumor volume)” value ([1]; primary AI tumors, vehicle corn oil) was “refractory”. The “expression of androgen receptors and PSA” value ([1]; western blot and IHC of endpoint tumors) was “no expression”, the E-cadherin expression [2, 3] was “slight increases” and the “levels of GR, N-cadherin, Bcl-2 and integrin α2” value [2, 3] was “continued to express high levels”. For the same molecule, the androgen receptor localization ([2]; enzalutamide-resistant tumors, immuno-histochemistry) was “still largely in the cytoplasm”, the “tumor growth compared to vehicle (corn oil) control” value ([2]; first 2-3 weeks) was “grew significantly slower” and the “time from which tumors resumed growth (resistance to enzalutamide)” value ([2]; mouse, in vivo) was 6.5-7 weeks. The “growth of enzalutamide-resistant cyto-AR+ LAPC4 tumors” value ([2]; up to 13 weeks, compared with enzalutamide-resistant LNCaP tumors) was “grew relatively slow”.
Cc1sc2c(c1C)C(c1ccc(Cl)cc1)=N[C@@H](CC(=O)OC(C)(C)C)c1nnc(C)n1-2 [JQ1, (S)-tert-butyl 2-(4-(4-chlorophenyl)-2,3,9-trimethyl-6H-thieno[3,2-f][1,2,4]triazolo[4,3-a][1,4]diazepin-6-yl)acetate] was tested, and the tumor growth [1, 4] was “significantly inhibited tumor growth” and the tumor incidence [1, 4] was “not tumor incidence”.
For CC#C[C@]1(O)CC[C@H]2[C@@H]3CCC4=CC(=O)CCC4=C3[C@@H](c3ccc(N(C)C)cc3)C[C@@]21C [mifepristone], the “emergence (incidence) of LNCaP secondary castration resistant prostate cancer” value (LNCaP AI-tumors; combination with enzalutamide given simultaneously, LNCaP primary AI tumors, P<0.0001, χ2 test for venetoclax combination) was “without reducing incidence” and the tumor growth (LNCaP AI-tumors; combination with enzalutamide, LNCaP primary AI tumors) was “inhibited tumor growth”.
